pKi: −log10 of the molar value.

In ChEMBL document CHEMBL1268837, “Novel CGRP receptor antagonists from central amide replacements causing a reversal of preferred chirality” (Bioorg Med Chem Lett, 2010) one finds Ki data, which are given here for eleven molecules.

For one experiment, the target named is T1, Calcitonin gene-related peptide type 1 receptor (Homo sapiens, UniProt O60894+Q16602). The experiment is described as follows: Binding affinity to human recombinant CGRP receptor.
T1 sequence (Q16602 whole entry, one chain of several): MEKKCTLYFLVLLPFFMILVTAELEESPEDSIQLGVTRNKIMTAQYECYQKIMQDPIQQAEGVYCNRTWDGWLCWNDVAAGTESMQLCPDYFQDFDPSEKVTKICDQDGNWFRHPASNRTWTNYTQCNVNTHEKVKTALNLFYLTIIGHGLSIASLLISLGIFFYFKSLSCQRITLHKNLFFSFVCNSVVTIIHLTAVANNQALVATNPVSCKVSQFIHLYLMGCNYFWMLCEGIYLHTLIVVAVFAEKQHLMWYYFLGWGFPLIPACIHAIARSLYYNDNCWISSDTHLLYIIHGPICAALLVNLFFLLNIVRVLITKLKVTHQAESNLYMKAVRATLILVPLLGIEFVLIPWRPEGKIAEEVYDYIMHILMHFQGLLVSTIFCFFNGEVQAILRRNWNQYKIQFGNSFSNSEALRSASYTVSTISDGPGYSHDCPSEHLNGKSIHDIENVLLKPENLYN
As to `CN1C(=O)NC(=O)C12Cc1cc3ccc(CN(Cc4ccccc4)C(=O)C(C)(C)C)nc3cc1C2` (stereo unspecified), the pKi was 8.66. The same measure, in the same setting: to `CN1C(=O)NC(=O)C12Cc1cc3cc(CN(Cc4ccccc4)C(=O)C(C)(C)C)cnc3cc1C2` (stereo unspecified) belongs 7.46; to `CN1C(=O)NC(=O)[C@]12Cc1cc3cc(CN(Cc4ccccc4)C(=O)C(C)(C)C)cnc3cc1C2`, 7.92.

In a further experiment the target is T1, Calcitonin gene-related peptide type 1 receptor. The experiment is described as follows: Displacement of [125I]hCGRP from human cloned CGRP receptor expressed in HEK293 cells. The experiment is classed as cell-based. On the technique in general: Loss of bound radioactivity is the signal in a displacement assay; it reports binding, not function.
`CC(C)(C)C(=O)N(Cc1cnc2cc3c(cc2c1)C[C@@]1(C3)C(=O)Nc2ncccc21)C[C@@H]1CCc2ccccc21`: the pKi is 10.43. Same read-out and setting: to `CC(C)(C)C(=O)N(Cc1ccc2nc3c(cc2c1)C[C@@]1(C3)C(=O)Nc2ncccc21)[C@@H]1CCc2ccccc21` belongs 9.96; to `CC(C)(C)C(=O)N(Cc1cnc2nc3c(cc2c1)C[C@@]1(C3)C(=O)Nc2ncccc21)[C@@H]1CCc2ccccc21`, 9.82; to `CC(C)(C)C(=O)N(Cc1ccccc1)Cc1cnc2cc3c(cc2c1)C[C@@]1(C3)C(=O)Nc2ncccc21`, 8.89. The same measure, in the same setting: to `CC(C)(C)C(=O)N(Cc1cc(F)cc(F)c1)Cc1cnc2cc3c(cc2c1)C[C@@]1(C3)C(=O)Nc2ncccc21` belongs 9.16; to `C[C@H](c1ccccc1)N(Cc1cnc2cc3c(cc2c1)C[C@@]1(C3)C(=O)Nc2ncccc21)C(=O)C(C)(C)C`, 10.00. Take `C[C@H](c1cc(F)cc(F)c1)N(Cc1cnc2cc3c(cc2c1)C[C@@]1(C3)C(=O)Nc2ncccc21)C(=O)C(C)(C)C`: the pKi is 9.92.

Regarding `CC1(C)CC[C@@H](c2cc(F)cc(F)c2)N(Cc2cnc3cc4c(cc3c2)C[C@@]2(C4)C(=O)Nc3ncccc32)C1=O`, the negative-log Ki (pKi) is 9.52.

The term pKi denotes the negative decadic logarithm of the Ki, by convention in mol/L.
